Data as given in patent publication US12427346B2, “P62 ligand compound, and composition for preventing, ameliorating or treating proteinopathies comprising the same” (AUTOTAC INC., priority 2018, dated 2025).
Where a name gives a salt, the structure may show the parent alone.

Tests used:
Format in all cases: cell-based, human
p62 and LC3 [1] = experiment: Autophagy activity of control compounds by immunofluorescence staining and confocal microscopy (Experimental Example 6); conditions: different concentrations, FIG. 7
Experimental: In order to confirm p62 protein activity and the activity level of autophagy phenomenon of control compounds (YOK-A-1104, YOK-G-1104, YTK-1005, YTK-1105-1), immunofluorescence staining was performed in the same manner as in Experimental Example 4 by using p62 and LC3 as markers. YOK-A-1104 and YOK-G-1104 are compounds having the following structures.
The compounds were treated at different concentrations, and intracellular puncta of p62 or LC3, that is, the degree to which autophagosome was formed and p62 was delivered was observed by a confocal microscopy.

LC3 [2] = experiment: Autophagy activity in cultured cells by immunoblotting, treatment time (Experimental Example 3); conditions: HeLa cells; 5 μM for 1, 3, 6, 12, 24, 48 hours or 10 μM for 24 hours; immunoblot, FIG. 4
Experimental: In order to investigate the autophagy activity efficacy by the compounds (Examples 1-25), immunoblotting was performed in the same manner as in Experimental Example 2 using LC3 as a marker. As for the difference, in order to evaluate the treatment time required for activation and the activity retention time, 5 μM of the representative compounds selected among the present compounds (Example 5 (YTK-1005), Example 6 (YTK-1205), Example 7 (YTK-1305), Example 2 (YTK-2205), Example 3 (YTK-3305), Example 14 (YTK-1108), Example 8 (YTK-105), Example 9 (YTK-205)) were treated for 1, 3, 6, 12, 24, 48 hours. On the other hand, 10 μM of the representative compounds selected among the present compounds (Example 10 (YT 5-1), Example 11 (YT 5-2), Example 16 (YT 8-8), Example 15 (YT 8-7), Example 17 (YTK-107), Example 18 (YTK-207), Example 20 (ATB10041), Example 21 (ATB10042), Example 22 (ATB10043), Example 23 (ATB10044), Example 24 (ATB10045), Example 25 (ATB10046)) were treated for 24 hours.

LC3 [3] = experiment: Autophagy activity in cultured cells by immunoblotting, concentration series (Experimental Example 2); conditions: HeLa cells; 1, 2, 5, 10 and 20 μM, 24 hours; immunoblot, FIG. 3
Experimental: In order to evaluate the autophagy activity efficacy by the compounds (Examples 1-25), HeLa cell line, which is a cell line derived from a cervical cancer patient, was cultured using a DMEM medium containing 10% FBS and 1% streptomycin/penicillin in an incubator with 5% carbon dioxide. As the representative compounds among the present compounds, the compounds of Examples 1, 2, 3, 5, 6, 7, 8, 9, 12 and 13 (Example 5 (YTK-1005), Example 1 (YTK-1105), Example 6 (YTK-1205), Example 7 (YTK-1305), Example 2 (YTK-2205), Example 3 (YTK-3305), Example 8 (YTK-105), Example 9 (YTK-205), Example 14 (YTK-1108), Example 12 (YT 5-7), Example 13 (YT 5-8)), Example 20 (ATB10041), Example 21 (ATB10042), Example 22 (ATB10043), Example 23 (ATB10044), Example 24 (ATB10045), and Example 25 (ATB10046)) were selected. In order to measure autophagy activity according to the treatment with these selected representative compounds, the respective cells were dispensed into 6 well plates. Additional cultures were performed for 24 hours so that the cells were completely attached to the surface of the plate. To find the concentration at which the respective compounds could increase the phenomenon of autophagy, the test compounds were diluted at 1, 2, 5, 10 and 20 μM and treated. After treatment with the respective compounds, the cells were cultured again in a cell incubator for 24 hours, and then the cells were collected. To extract proteins from the collected cells, 100 ul of lysis buffer (20 mM Tris (pH 7.4), 150 mM NaCl, 1% Triton X-100, 2 mM NaF, 2 mM EDTA, 2 mM beta-glycerophosphate, 5 mM sodium orthovanadate, 1 mM PMSF, leupeptin, aprotinin) was injected into each sample, and cells were lysed. Based on the measured total protein concentration, a sample buffer was added to each sample and allowed to react at 100° C. for 5 minutes. 5 ul was taken from the samples after the reaction, and dispensed into each well of acrylamide gel, and then immunoblotting was performed.

p62 and LC3 [4] = experiment: Autophagy activity by immunofluorescence staining and confocal microscopy (Experimental Example 5); conditions: HeLa cells, 5 uM, 24 hours, FIG. 6
Experimental: In order to confirm the p62 protein activity and the activity level of autophagy phenomenon by the compounds (Examples 1-25), immunofluorescence staining was performed using p62 and LC3 as markers. In order to confirm the p62 activity and the activity level of autophagy phenomenon by new p62 ligands and isomers thereof in cultured cells, HeLa cell line, which is a cell line derived from cervical cancer patient, was treated with the novel p62 ligand compounds (YTK-1205, YTK-1305, YTK-2205, YTK-3305, YTK-105, YTK-205, YT 5-1, YT 9-1, YT 5-2, YT 9-2, YT 8-2, YT 8-1, YTK-107, YTK-207) and cultured. Thereafter, as markers of the autophagy phenomenon, the expression level and location of LC3 puncta and the local co-existence with p62 puncta were observed.
For immunofluorescence staining, a cover glass was placed on a 24-well plate, cells were dispensed, cultured for 24 hours, and then treated with 5 uM of the novel p62 ligands according to the present invention. For the action of the compounds, additional cultures were performed for 24 hours, and then the medium was removed. Cells were fixed using formaldehyde at room temperature. In order to prevent non-specific staining, the cells were allowed to react with a blocking solution at room temperature for 1 hour, and then treated with LC3 antibody diluted at a certain ratio using the blocking solution, and allowed to reacted at room temperature for 1 hour. The antibody-treated cells were washed three times with PBS, and goat-derived secondary antibody was diluted at a certain ratio using the blocking solution, and then allowed to react at room temperature for 30 minutes. The cells were washed again with PBS three times, and for intracellular nuclear staining, the expression level, intracellular puncta formation and intracellular coexistence level of p62 and LC3 were observed through a confocal microscopy after DAPI staining.

Compound	p62 activation and oligomerization, delivery to autophagosome, autophagy activity (p62 and LC3 puncta) of control compounds (p62 and LC3 [1])	autophagy activity (level of LC3) (LC3 [2])	autophagy activity (level of LC3) (LC3 [3])	p62 activation and oligomerization, delivery to autophagosome, autophagy activity (p62 and LC3 puncta, local coexistence) (p62 and LC3 [4])
CCOC(=O)C(C)NC[C@@H](O)COc1ccc(OCc2ccccc2)c(OCc2ccccc2)c1 (stereo partly drawn) [YOK ALA-1104, Ethyl (R)-(3-(3,4-bis(benzyloxy)phenoxy)-2-hydroxypropyl)alanineate]	allow the activation and oligomerization of p62 proteins and then show the efficacy of delivering them to autophagosome and simultaneously increasing autophagy activity	–	–	–
OCCNCc1ccc(OCc2ccccc2)c(O)c1 [YTK-HCl-1005, 2-(benzyloxy)-5-(((2-hydroxyethyl)amino)methyl)phenol]	allow the activation and oligomerization of p62 proteins and then show the efficacy of delivering them to autophagosome and simultaneously increasing autophagy activity	increasing the autophagy activity	increasing the autophagy activity	–
OCCNCc1cccc(OCCc2ccccc2)c1 [YTK-205, 2-((3-(phenethoxy)benzyl)amino)ethan-1-ol]	–	increasing the autophagy activity	increasing the autophagy activity	allow the activation and oligomerization of p62 proteins, and then show the efficacy of delivering them to autophagosome and simultaneously increasing autophagy activity
COC(=O)CNC[C@@H](O)COc1ccc(OCc2ccccc2)c(OCc2ccccc2)c1 [YOK R-Gly-1104, Methyl (R)-(3-(3,4-bis(benzyloxy)phenoxy)-2-hydroxypropyl)glycineate]	allow the activation and oligomerization of p62 proteins and then show the efficacy of delivering them to autophagosome and simultaneously increasing autophagy activity	–	–	–
OCCCCc1ccc(OCc2ccccc2)c(OCc2ccccc2)c1 [YTK HCl-1105-1, 4-(3,4-bis(benzyloxy)phenyl)butan-1-ol]	allow the activation and oligomerization of p62 proteins and then show the efficacy of delivering them to autophagosome and simultaneously increasing autophagy activity	–	–	–
